Where two headings read alike, the source gives them in different places.
Experiments:
5HT1B receptors = target: T1, 5HT1B receptors (Rattus norvegicus, UniProt P28564); experiment: Binding test: displacement of [^3 H]-5HT from membranes of the rat striatum (5HT1B)
T1 construct: membranes of the rat striatum; from tissue; host or cells: rat striatum membranes
Experimental: (§1) This test is carried out according to the protocol of PEROUTKA, S.J. ["Selective labelling of 5-HT1A and 5HT1B binding sites in bovine brain" BRAIN RESEARCH 344, p. 167-171 (1985)]. In this test, the affinity for 5HT1A receptors is determined by the Capacity of the compounds to displace [^3 H]-8-OH-DPAT from the membranes of the rat hippocampus; similarly, the affinity for 5HT1B receptors is determined by the capacity of the compounds to displace [^3 H]-5HT from the membranes of the rat striatum.
(§2) The results recorded in Table II below show the pKi values calculated according to the abovementioned protocol.

5HT1B = experiment: Penile erection test (5HT1B agonist potential); assay type: in vivo; details: rats; for minimal effective dose: Rattus norvegicus, sc, administered subcutaneously, read-out: ERECTION OF THE PENIS, minimum dose which leads to an erection of the penis, subcutaneous; for ERECTION OF THE PENIS, activity when administered orally: administered orally (PO)
Description: This test, carried out according to the protocol of BERENDSEN H.H.G. and BROEKKAMP C.L.E. ["Drug induced penile erections in rats: indication of serotonin 1B receptor mediation--EUROPEAN J. PHARMACOL. 135, 279-287 (1987")]enables the 5HT1B agonist potentials of the various compounds to be assessed.
The results recorded in Table II below show the minimum dose in mg.kg^-1 administered subcutaneously which leads to an erection of the penis in rats, as well as the activity when administered orally.

5HT1A receptors = target: T2, 5HT1A receptors (Rattus norvegicus, UniProt P19327); experiment: Binding test: displacement of [^3 H]-8-OH-DPAT from membranes of the rat hippocampus (5HT1A)
T2 construct: membranes of the rat hippocampus; from tissue; host or cells: rat hippocampus membranes
T2 sequence (P19327 1-422): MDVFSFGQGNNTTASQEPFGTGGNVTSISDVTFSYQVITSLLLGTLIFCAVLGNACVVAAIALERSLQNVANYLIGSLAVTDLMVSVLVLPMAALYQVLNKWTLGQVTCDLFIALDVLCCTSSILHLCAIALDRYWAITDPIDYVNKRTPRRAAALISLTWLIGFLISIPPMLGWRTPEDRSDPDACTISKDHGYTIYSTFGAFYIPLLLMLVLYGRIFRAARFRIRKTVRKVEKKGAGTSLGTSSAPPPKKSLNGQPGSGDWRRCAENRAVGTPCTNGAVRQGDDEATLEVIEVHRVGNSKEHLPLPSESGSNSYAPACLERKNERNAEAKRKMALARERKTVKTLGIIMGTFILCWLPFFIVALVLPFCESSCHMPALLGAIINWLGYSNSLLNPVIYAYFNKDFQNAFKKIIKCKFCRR
Experimental: as §1, §2

[1] = rat striatum membranes, [^3 H]-5HT, read-out: BINDING pKi 5HT1B (converted)
[2] = rat hippocampus membranes, [^3 H]-8-OH-DPAT, read-out: BINDING pKi 5HT1A (converted)

T1 sequence (P28564 whole entry): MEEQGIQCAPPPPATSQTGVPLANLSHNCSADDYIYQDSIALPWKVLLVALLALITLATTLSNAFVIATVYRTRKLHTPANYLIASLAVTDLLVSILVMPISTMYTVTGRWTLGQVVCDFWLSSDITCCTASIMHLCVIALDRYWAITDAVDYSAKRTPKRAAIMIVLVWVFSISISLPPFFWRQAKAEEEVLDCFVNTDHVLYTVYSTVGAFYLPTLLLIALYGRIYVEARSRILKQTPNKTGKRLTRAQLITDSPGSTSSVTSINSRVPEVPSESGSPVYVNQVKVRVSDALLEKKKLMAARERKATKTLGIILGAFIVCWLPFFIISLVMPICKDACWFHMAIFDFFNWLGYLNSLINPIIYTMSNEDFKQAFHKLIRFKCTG

Row | Compound | Ki (5HT1B receptors; [1]) | minimal effective dose (5HT1B) | ERECTION OF THE PENIS, activity when administered orally (5HT1B) | Ki (5HT1A receptors; [2]) | Ki (5HT1B receptors) | Ki (5HT1A receptors)
1 | FC(F)(F)c1ccc(N2CCNCC2)nc1 [Compound 1, 1-(5-trifluoromethyl-2-pyridinyl)piperazine] | 501 nM | 1 mg/kg | > 46 mg/kg | > 10000 nM |  | 
2 | FC(F)(F)c1ccnc(N2CCNCC2)c1 [Compound 2, 1-(4-trifluoromethyl-2-pyridinyl)piperazine] | 126 nM | 1 mg/kg | 2.2 mg/kg | 2510 nM |  | 
3 | FC(F)(F)c1ccc(N2CCNCC2)nc1Cl [Compound 3] |  | 0.46 mg/kg | 4.6 mg/kg |  | 100 nM | 2510 nM
4 | FC(F)(F)c1cnc(N2CCNCC2)cc1C(F)(F)F [Compound 4, 1-[4,5-bis(trifluoromethyl)-2-pyridinyl]piperazine] | 398 nM | 10 mg/kg | 2.2 mg/kg | 79400 nM |  | 
5 | FC(F)(F)c1cnc(N2CCNCC2)c(Cl)c1 [Compound 5, 1-(3-chloro-5-trifluoromethyl-2-pyridinyl)piperazine] | 501 nM | 4.6 mg/kg | 10 mg/kg | 3980 nM |  | 
